Where a name gives a salt, the structure may show the parent alone.
Columns and labels:
[1] = test system: primary human hepatocytes; assay: CC20 hepatic nuclei (20% reduction); higher = less toxic
Description: (§1)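 Dose-response of P. vivax liver stages in primary human hepatocytes, with 8 points (10 uM-[…], v1) or 12 points in duplicate (50 uM-280 pM, v2). Read-out is high-content imaging of schizont net growth area, hypnozoite quantity and hepatic nuclei. EC50 and CC20 (20% nuclei loss) were fitted in CDD Vault from the highest-quality independent experiment; toxic-dose bell-shaped points were masked. '>' marks the highest concentration with less than 50% activity, and ND means a non-sigmoidal curve.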

[2] = test system: Plasmodium vivax liver stage (primary human hepatocyte culture)
Description: as §1

[3] = test system: Plasmodium vivax liver stage (primary human hepatocyte culture); assay: maximum inhibition of schizont net growth area; higher = more active
Description: as §1

[4] = P. vivax isolate: Pv357, hepatocyte lot: UBV, assay mode: Radical Cure, 8-day (treatment from day 5 post-infection)
[5] = P. vivax isolate: Pv914, hepatocyte lot: BGW, assay mode: Prophylactic, 6-day
[6] = P. vivax isolate: Pv728, hepatocyte lot: BGW, assay mode: Radical Cure, 8-day (treatment from day 5 post-infection)
[7] = P. vivax isolate: Pv360, hepatocyte lot: UBV, assay mode: Radical Cure, 8-day (treatment from day 5 post-infection)
[8] = P. vivax isolate: Pv772, hepatocyte lot: BGW, assay mode: Prophylactic, 6-day
[9] = P. vivax isolate: IVS17-02, hepatocyte lot: PDC, assay mode: Radical Cure, 8-day (treatment from day 5 post-infection)
[10] = P. vivax isolate: Pv360, hepatocyte lot: UBV, assay mode: Prophylactic, 6-day
[11] = P. vivax isolate: Pv458, hepatocyte lot: UBV, assay mode: Radical Cure, 8-day (treatment from day 5 post-infection)
[12] = P. vivax isolate: Pv914, hepatocyte lot: BGW, assay mode: Radical Cure, 8-day (treatment from day 5 post-infection)
[13] = P. vivax isolate: Pv836, hepatocyte lot: BGW, assay mode: Radical Cure, 8-day (treatment from day 5 post-infection)

For `CC(C)(N)CNC(=O)CC1CCC2(CC1)OOC1(O2)C2CC3CC(C2)CC1C3` (configuration not stated) [Arterolane, OZ277], the CC20 hepatic nuclei [1, 4] was > 10000 nM, the EC50 hypnozoite quantity [2, 4] was > 10000 nM and the “EC50 schizont net growth area” value [2, 4] was > 10000 nM. The maximum inhibition [3, 4] was 51.4%.
For `CC[C@H]1OC(=O)[C@H](C)C(=O)[C@H](C)[C@@H](O[C@@H]2O[C@H](C)C[C@H](N(C)C)[C@H]2O)[C@](C)(OCC=Cc2cnc3ccccc3c2)C[C@@H](C)C(=O)[C@H](C)[C@H]2N=C(O)O[C@@]21C` [Cethromycin], the CC20 hepatic nuclei [1, 5] was > 10000 nM, the EC50 hypnozoite quantity [2, 5] was > 10000 nM and the maximum inhibition [3, 5] was 63.3%.
For `CCN(CC)CCCC(C)Nc1ccnc2cc(Cl)ccc12` (configuration not stated) [Chloroquine Diphosphate], the CC20 hepatic nuclei [1, 5] was > 16700 nM, the EC50 hypnozoite quantity [2, 5] was > 16700 nM and the “EC50 schizont net growth area” value [2, 5] was > 5560 nM. It also gave a maximum inhibition [3, 5] of 99.1%.
In the case of `O=C(O)c1cn(C2CC2)c2cc(N3CCNCC3)c(F)cc2c1=O` [Ciprofloxacin], the CC20 hepatic nuclei [1, 6] is reported as > 10000 nM, the EC50 hypnozoite quantity [2, 6] is reported as > 10000 nM and the “EC50 schizont net growth area” value [2, 6] is reported as > 10000 nM. It also gave a maximum inhibition [3, 6] of 59.2%.
In the case of `CCC[C@@H]1C[C@@H](C(=O)N[C@@H]([C@H]2O[C@H](SC)[C@H](O)[C@@H](O)[C@H]2O)[C@H](C)Cl)N(C)C1` [Clindamycin hydrochloride], the CC20 hepatic nuclei [1, 5] is reported as > 50000 nM, the EC50 hypnozoite quantity [2, 5] is reported as > 50000 nM and the “EC50 schizont net growth area” value [2, 5] is reported as 5.97 nM. It also gave a maximum inhibition [3, 5] of 79.5%.
`CC1CC(C)C(=O)C(C(O)CC2CC(=O)NC(=O)C2)C1` (configuration not stated) [Cycloheximide] was tested, and the CC20 hepatic nuclei [1, 7] was > 10000 nM, the CC20 hepatic nuclei [1, 5] was > 10000 nM and the EC50 hypnozoite quantity [2, 7] was > 10000 nM. For the same compound, the “EC50 schizont net growth area” value [2, 7] was 85.6 nM, the EC50 hypnozoite quantity [2, 5] was > 3330 nM and the “EC50 schizont net growth area” value [2, 5] was 1390 nM. The maximum inhibition [3, 7] was 96.3% and the maximum inhibition [3, 5] was 99.6%.
For `C[C@H]1c2cccc(O)c2C(=O)C2=C(O)[C@]3(O)C(=O)C(C(N)=O)=C(O)[C@@H](N(C)C)C3[C@@H](O)C21` (some centres not stated) [Doxycycline hydrochloride], the CC20 hepatic nuclei [1, 5] was > 10000 nM, the EC50 hypnozoite quantity [2, 5] was > 10000 nM and the “EC50 schizont net growth area” value [2, 5] was > 370 nM. For the same compound, the maximum inhibition [3, 5] was 68.3%.
With `CCC(C)C1OC2(CCC1C)CC1CC(CC=C(C)C(OC3CC(OC)C(OC4CC(OC)C(O)C(C)O4)C(C)O3)C(C)C=CC=C3COC4C(O)C(C)=CC(C(=O)O1)C34O)O2` (configuration not stated) [Ivermectin] the CC20 hepatic nuclei [1, 8] was > 10000 nM, the EC50 hypnozoite quantity [2, 8] was > 10000 nM and the “EC50 schizont net growth area” value [2, 8] was > 3330 nM. The maximum inhibition [3, 8] was 69.8%.
For `CC1(C)c2nc(-c3ccc(F)cc3)c(Nc3ccc(F)cc3)n2CCN1C(=O)CN` [KAF156], the CC20 hepatic nuclei [1, 9] was > 1000 nM, the CC20 hepatic nuclei [1, 10] was > 10000 nM and the EC50 hypnozoite quantity [2, 9] was > 1000 nM. For the same compound, the “EC50 schizont net growth area” value [2, 9] was 330 nM, the EC50 hypnozoite quantity [2, 10] was 32.9 nM and the “EC50 schizont net growth area” value [2, 10] was 14.1 nM. It also gave a maximum inhibition [3, 9] of 93.2% and a maximum inhibition [3, 10] of 103%.
In the case of `CCC(C(=O)C(C)C(O)C(C)CCc1ccc(C)c(O)c1C(=O)[O-])C1OC(CC)(C2CCC(O)(CC)C(C)O2)CC1C.[Na+]` (configuration not stated) [Lasalocid-A], the CC20 hepatic nuclei [1, 4] is reported as > 10000 nM, the EC50 hypnozoite quantity [2, 4] is reported as 1050 nM and the “EC50 schizont net growth area” value [2, 4] is reported as 43.1 nM. The maximum inhibition [3, 4] was 100%.
In the case of `COC1CC(OC2CC(C3OC(C)(O)C(C)CC3C)OC2C2(C)CCC(C3(C)CCC4(CC(O)C(C)C(C(C)C5OC(O)(CC(=O)O)C(C)C(OC)C5OC)O4)O3)O2)OC(C)C1OC.N` (configuration not stated) [Maduramicin], the CC20 hepatic nuclei [1, 11] is reported as 2590 nM, the EC50 hypnozoite quantity [2, 11] is reported as 22.5 nM and the “EC50 schizont net growth area” value [2, 11] is reported as 0.705 nM. The maximum inhibition [3, 11] was 101%.
`CCC(C(=O)O)C1OC(C(C)C(O)C(C)C(=O)C(CC)C2OC3(C=CC(O)C4(CCC(C)(C5CCC(O)(CC)C(C)O5)O4)O3)C(C)CC2C)C(C)CC1C` (configuration not stated) [Narasin] was tested, and the CC20 hepatic nuclei [1, 11] was 8800 nM, the EC50 hypnozoite quantity [2, 11] was 64.6 nM and the “EC50 schizont net growth area” value [2, 11] was 7.5 nM. It also gave a maximum inhibition [3, 11] of 101%.
With `N=C(N)c1ccc(OCCCCCOc2ccc(C(=N)N)cc2)cc1` [Pentamidine isethionate] the CC20 hepatic nuclei [1, 5] was 5540 nM, the CC20 hepatic nuclei [1, 12] was > 5560 nM and the EC50 hypnozoite quantity [2, 5] was 5540 nM. For the same compound, the “EC50 schizont net growth area” value [2, 5] was 551 nM, the EC50 hypnozoite quantity [2, 12] was > 50000 nM and the “EC50 schizont net growth area” value [2, 12] was 8390 nM. The maximum inhibition [3, 5] was 99.6% and the maximum inhibition [3, 12] was 94.4%.
For `CCC(C(=O)O)C1CCC(C)C(C(C)C(O)C(C)C(=O)C(CC)C2OC3(C=CC(O)C4(CCC(C)(C5CCC(O)(CC)C(C)O5)O4)O3)C(C)CC2C)O1` (configuration not stated) [Salinomycin], the CC20 hepatic nuclei [1, 13] was > 10000 nM, the EC50 hypnozoite quantity [2, 13] was 112 nM and the “EC50 schizont net growth area” value [2, 13] was 40.2 nM. It also gave a maximum inhibition [3, 13] of 102%.

— the supplement of paper PMC8497498
